“Also recorded” adds a separate entry of the source.
Experiments:
[1] = tested on: H460 human large cell lung cancer cell line; assay: Cellular growth of H460 cells, flow cytometry cell count with PI (Example 11); format: cell-based; conditions: retinoic acid 1 μg/ml, extracts 21 μg/ml, 6 days, 2% ethanol, FIG. 2
Method: (§1) The human large cell lung cancer cell line, H460, was obtained from the American Type Culture Collection. The cells were cultivated in RPMI-1640 medium containing 10% FBS and kept in a humidified incubator at 37° C. and 5% CO2. Cultures used in subsequent experiments were passaged less than 25 times. The H460 cells were seeded at 14375 cells/well (cell concentration of 10,000 cells/ml) in 12 well plates and were left to adhere overnight.
MR15E14, CHARE and Retinoic acid prepared as described in examples 2, 4 and 9 respectively including a solvent control (2% ethanol) were added to the cells. Media were replaced once after 3 days of incubation with fresh media and samples. After 6 days, all cells were harvested to be analyzed. The cell number was determined using flow cytometry. Live cells were differentiated from dead cells by adding Propidium iodide (PI). Live cells would be PI negative since the dye would be excluded from viable cells.
In short, cells were trypsinized, centrifuged and resuspended in 500 μl of media. 2 μl of PI (1 mg/ml) was added to 400 μl of cell suspension. Since the cells number present in 10 μl of the cell suspension was measured, multiple measurements for each well were taken.
Solvent control was set at 100%.

[2] = tested on: H460 human large cell lung cancer cell line; assay: Cellular growth of H460 cells, AMT without chamomile, with MR15E14 or with CHARE (Example 12); format: cell-based; conditions: extracts 21 μg/ml, 1% AMT, retinoic acid 1 μg/ml or 1% ethanol, 6 days, FIG. 3A/3B
Method: as §1, with “The following experiments were performed to compare the composition of the present invention with the teaching of WO 03101479 A1: The human” for “The human”
The H460 cells were incubated with the samples and sample pairs for a total of 6 days with one dose and media refreshment. After 6 days, all cells were harvested to be analyzed. The cell number was determined using flow cytometry. Live cells were differentiated from dead cells by adding Propidium iodide (PI). In short, cells were trypsinized, centrifuged and resuspended in 500 μl of media. 2 μl of PI (1 mg/ml) was added to 400 μl of cell suspension. Since the cells number present in 10 μl of the cell suspension was measured, multiple measurements for each well were taken. […] Solvent control was set at 100%.

[3] = tested on: Pan02 murine pancreatic adenocarcinoma; assay: Efficacy study in the syngenic orthotopic Pan02 tumor model (Example 15); format: in vivo, female C57BL/6 mice; conditions: oral, 21 days
Source text: The purpose of this study was to obtain information about the efficacy of the oral combination of Chamomile extract (MR31E25C1 and Retinoic acid (RetAcid) in a syngenic orthotropic PAN02 tumor murine model.
Young (approximately 7 weeks) female C57BL/6 mice were purchased from the National Cancer Institute (Frederick, Md.) and maintained in Aurigon Life Science GmbH's animal care facility with ad libitum access to water and mouse chow (Ssniff® R/M-H). The animals were divided into groups of 10 animals.
All animals, except those in the non-inoculated control group, were given an intrapancreatic injection of 2.5×10^5 Pan02 tumor cells each. Pan02 is a murine pancreatic adenocarcinoma cell line syngeneic to the C57BL/6 species. First treatment was given orally 15 days after the inoculation for a total period of 21 days.
Necropsy was performed at the end of the in-life phase or immediately on animals found dead or killed in extremis. The weights of the brain, whole pancreas, pancreatic tumor, spleen, and liver were determined and the number/size of metastases on the surface of the spleen and liver, peritoneal, kidney, ovary, diaphragm metastases, and metastases of the lymph nodes (if applicable) were recorded. Additionally, the size of the pancreatic tumors of the animals was measured.
The groups were as follows:
Group 1: Non-inoculated, untreated control group. […]

[4] = tested on: A172 human glioblastoma cell line; assay: Cellular growth of A172 cells, live cell count with Trypan Blue (Example 10); format: cell-based; conditions: retinyl acetate 1 μg/ml, 6 days, FIG. 1A
Method: The human glioblastoma cell lines A172 and U87 MG were cultivated in culture medium containing 10% FBS and kept in a humidified incubator at 37° C. and 5% CO2. Cultures used in subsequent experiments were passaged less than 25 times. The cells were seeded at 100,000 cells in T25 cm2 culture flasks (cell concentration of 10,000 cells/ml). MR15E7 and Retinyl Acetate prepared according to examples 1 and 8 respectively were added alone as individual or together in combination (A172 FIGS. 1A and U87 FIG. 1B). The solvent control was 2% ethanol. Media were replaced once after 3 days of incubation with fresh media and samples. After 6 days, all cells were harvested to be analyzed. The cell number was determined using a cell counter (Countess® automated cell counter, Invitrogen). Live cells were differentiated from dead cells by adding Trypan Blue. Live cells would be Trypan Blue negative since the dye would be excluded from viable cells. […] Solvent control was set at 100%. […] The solvent control and the final ethanol concentration for every well was 2%.

[5] = tested on: U87 MG human glioblastoma cell line; assay: Cellular growth of U87 MG cells, live cell count with Trypan Blue (Example 10); format: cell-based; conditions: MR15E7 30 μg/ml, retinyl acetate 1 μg/ml, 6 days, FIG. 1B
Method: The human glioblastoma cell lines A172 and U87 MG were cultivated in culture medium containing 10% FBS and kept in a humidified incubator at 37° C. and 5% CO2. Cultures used in subsequent experiments were passaged less than 25 times. The cells were seeded at 100,000 cells in T25 cm2 culture flasks (cell concentration of 10,000 cells/ml). MR15E7 and Retinyl Acetate prepared according to examples 1 and 8 respectively were added alone as individual or together in combination (A172 FIGS. 1A and U87 FIG. 1B). The solvent control was 2% ethanol.
Media were replaced once after 3 days of incubation with fresh media and samples. After 6 days, all cells were harvested to be analyzed. The cell number was determined using a cell counter (Countess® automated cell counter, Invitrogen).
Live cells were differentiated from dead cells by adding Trypan Blue. Live cells would be Trypan Blue negative since the dye would be excluded from viable cells.
Solvent control was set at 100%. […] The potential growth inhibitory effects of retinyl acetate (1 μg/ml), MR15E7 (30 μg/ml) and the combination of 30 μg/ml of the extract and retinyl acetate (1 μg/ml) were observed on both the A172 (A) and U87 MG (B) cell lines. The solvent control and the final ethanol concentration for every well was 2%.

Row | SMILES | effect on cellular growth [1] | effect on cellular growth [2] | median tumor volume ([3]; MR31E25C1 484.5 mg/kg 3x daily, retinoic acid 25 mg/kg 2x daily for 2 days, then 10 mg/kg daily, FIG. 5) | cumulative metastases area in various organs ([3]; same doses, vs untreated PAN02 inoculated group, FIG. 6) | effect on cellular growth [4] | effect on cellular growth [5]
1 | CC1=C(/C=C/C(C)=C/C=C/C(C)=C/C(=O)O)C(C)(C)CCC1 [Retinoic acid, all-trans-Retinoic acid] | slightly reduced the cellular growth | slight growth retarding effect | even aggravated the situation | only slight reduction of the overall metastasis development | – | –
2 | CC(=O)OC/C=C(C)/C=C/C=C(C)/C=C/C1=C(C)CCCC1(C)C [retinyl acetate, Retinyl Acetate] | – | – | – | – | did not affect cellular growth; also recorded: do not affect cellular growth | did not affect cellular growth; also recorded: do not affect cellular growth

— patent US10028989B2, “Composition comprising Retinol, a precursor or a reaction product of it and a plant extract from at least one Chamomilla plant for the treatment of cancer” (ALPINIA LAUDANUM INSTITUTE OF PHYTOPHARMACEUTICAL SCIENCES …, priority 2010, dated 2018)
